These results are taken from US8012980B2, “Isoquinolinone derivatives” (AstraZeneca AB, priority 2008, dated 2011).

Counter-ions that a name gives are not always drawn.

In the first assay the target is T1, human active recombinant p38 (p38α) (Homo sapiens, UniProt Q16539).
T1 construct: 6His
T1 sequence (Q16539 whole entry): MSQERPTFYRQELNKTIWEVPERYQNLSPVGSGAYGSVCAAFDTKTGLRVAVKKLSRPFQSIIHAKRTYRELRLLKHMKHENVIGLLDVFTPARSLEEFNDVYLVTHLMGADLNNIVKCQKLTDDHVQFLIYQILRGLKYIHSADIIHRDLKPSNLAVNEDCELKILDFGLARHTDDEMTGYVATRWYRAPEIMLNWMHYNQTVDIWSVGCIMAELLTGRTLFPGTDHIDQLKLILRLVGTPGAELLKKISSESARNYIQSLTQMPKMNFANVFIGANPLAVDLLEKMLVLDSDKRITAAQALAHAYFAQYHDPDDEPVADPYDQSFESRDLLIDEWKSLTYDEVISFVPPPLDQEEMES
In words: p38 Alpha Enzyme Assay (AlphaScreen, biotinylated-ATF2 substrate). As to conditions: means of replicate determinations; pre-incubated for 4 hours at 37° C.; SD of assay between 0.2 and 0.3 log units. The format is biochemical. As for the experimental part:
The ability of the compounds of formula (I) to inhibit p38 kinase may be determined using the following biological assay:
Enzyme assays were performed in polypropylene 96 well plates. The following solutions were added to each well; 10 μL of compound dilutions in assay buffer (20 mM HEPES pH 7.4, containing 20 mM magnesium acetate, 0.005% (w/v) Tween-20, 10 mM DTT) containing 1% (v/v) DMSO or assay buffer containing 1% (v/v) DMSO alone, 70 μL of assay buffer containing 36 nM substrate (biotinylated-ATF2) and 10 μL of an appropriate dilution of human active recombinant p38-6H is tagged. Depending on batch of p38, an appropriate dilution was typically a 5 nM solution to give a final enzyme concentration of 0.5 nM. At this stage, background control wells also received 50 μL of AlphaScreen quench buffer (10 mM HEPES pH 7.4 containing 100 mM EDTA, 0.2% (w/v) bovine serum albumin). The plate was covered, pre-incubated for 4 hours at 37° C. and the enzyme reaction initiated by addition of 10 μL 1 mM ATP. After incubation for a further 45 minutes at 37° C., the reaction was stopped by addition of 50 μL quench reagent and 50 μL of the quenched reaction mixture transferred to an opaque, white 96-well plate. Detection reagent, 25 μL of 10 mM HEPES pH 7.4 containing 100 mM EDTA, 0.2% (w/v) bovine serum albumin, 0.3 nM anti phosphoATF2 antibody and 25 μg/mL of AlphaScreen protein A acceptor and donor beads' (PerkinElmer Inc.), was added to all wells in a darkened room, the plate sealed and left in the dark for at least 5 hours before AlphaScreen readings were taken using a Perkin Elmer EnVision reader. Total, uninhibited activity was determined from assays performed in each assay plate. The mean control in the absence of p38 activity was subtracted from each well. Data were expressed as percent inhibition of total activity using equation 1. Percent Inhibition=100*(1−Test/Control) Eq.1 Where . . . Test=p38 kinase activity in the presence of compound Control=p38 kinase activity in the absence of compound.
pIC50 is defined as the logarithm of the reciprocal of the concentration of compound required for 50% reduction in total p38 kinase activity.
The standard deviation of the p38 enzyme inhibition assay is between 0.2 and 0.3 log units.
Turning to `Cc1c(F)cc(C(=O)NC2CC2)cc1-c1ccc2c(=O)n(CC(C)(C)CO)cc(CN3CCC[C@H](N)C3)c2c1` [Example 25, 3-[4-{[(3S)-3-Aminopiperidin-1-yl]methyl}-2-(3-hydroxy-2,2-dimethylpropyl)-1-oxo-1,2-dihydroisoquinolin-6-yl]-N-cyclopropyl-5-fluoro-4-methylbenzamide], the “p38α inhibition Mean pIC50” value was 8.8.

Still in this assay, the particulars now being: means of replicate determinations; pre-incubated for 4 hours at 37° C.; SD of assay between 0.2 and 0.3 log units; read-out: p38α inhibition Mean pIC50 (converted).
`Cc1c(F)cc(C(=O)NC2CC2)cc1-c1ccc2c(=O)n(CC(C)(C)CO)cc(CN3CCNC[C@H]3CO)c2c1` [Example 21, N-Cyclopropyl-3-fluoro-5-[2-(3-hydroxy-2,2-dimethylpropyl)-4-{[(2S)-2-(hydroxymethyl)piperazin-1-yl]methyl}-1-oxo-1,2-dihydroisoquinolin-6-yl]-4-methylbenzamide]: the IC50 is 0.251 nM. Take `Cc1c(F)cc(C(=O)NC2CC2)cc1-c1ccc2c(=O)n(CC(C)(C)CO)cc(CN3CCNC[C@@H]3CO)c2c1` [Example 22, N-Cyclopropyl-3-fluoro-5-[2-(3-hydroxy-2,2-dimethylpropyl)-4-{[(2R)-2-(hydroxymethyl)piperazin-1-yl]methyl}-1-oxo-1,2-dihydroisoquinolin-6-yl]-4-methylbenzamide]: the IC50 was 0.158 nM. Take `Cc1c(F)cc(C(=O)NC2CC2)cc1-c1ccc2c(=O)n(CC(C)(C)CO)cc(CN3CCCNCC3)c2c1` [Example 23, N-Cyclopropyl-3-[4-(1,4-diazepan-1-ylmethyl)-2-(3-hydroxy-2,2-dimethylpropyl)-1-oxo-1,2-dihydroisoquinolin-6-yl]-5-fluoro-4-methylbenzamide]: the IC50 is 0.316 nM. The same measure, in the same setting: the result for `Cc1c(F)cc(C(=O)NC2CC2)cc1-c1ccc2c(=O)n(CC(C)(C)CO)cc(CN3CCN(C)CC3)c2c1` [Example 24, N-Cyclopropyl-3-fluoro-5-{2-(3-hydroxy-2,2-dimethylpropyl)-4-[(4-methylpiperazin-1-yl)methyl]-1-oxo-1,2-dihydroisoquinolin-6-yl}-4-methylbenzamide] reads 0.631 nM; that for `Cc1c(F)cc(C(=O)NC2CC2)cc1-c1ccc2c(=O)n(CC3(CO)CCC3)cc(CN3CCNCC3)c2c1` [Example 27, N-Cyclopropyl-3-fluoro-5-[2-{[1-(hydroxymethyl)cyclobutyl]methyl}-1-oxo-4-(piperazin-1-ylmethyl)-1,2-dihydroisoquinolin-6-yl]-4-methylbenzamide], 0.316 nM. Still for that read-out and setting: the result for `Cc1c(F)cc(C(=O)NC2CC2)cc1-c1ccc2c(=O)n(CC(C)(C)CO)cc(CN3CCNC[C@@H]3C)c2c1` [Example 28, N-Cyclopropyl-3-fluoro-5-[2-(3-hydroxy-2,2-dimethylpropyl)-4-{[(2S)-2-methylpiperazin-1-yl]methyl}-1-oxo-1,2-dihydroisoquinolin-6-yl]-4-methylbenzamide] reads 0.794 nM. Regarding `Cc1c(F)cc(C(=O)NC2CC2)cc1-c1ccc2c(=O)n(CC(C)(C)CO)cc(CN3CCN[C@@H](C)C3)c2c1` [Example 29, N-Cyclopropyl-3-fluoro-5-[2-(3-hydroxy-2,2-dimethylpropyl)-4-{[(3S)-3-methylpiperazin-1-yl]methyl}-1-oxo-1,2-dihydroisoquinolin-6-yl]-4-methylbenzamide hydrochloride], the IC50 was 0.794 nM. On the same count and under the same terms, the result for `Cc1c(F)cc(C(=O)NC2CC2)cc1-c1ccc2c(=O)n(CC(C)(C)CO)cc(CN3CCC[C@@H](N)C3)c2c1` [Example 30, 3-[4-{[(3R)-3-Aminopiperidin-1-yl]methyl}-2-(3-hydroxy-2,2-dimethylpropyl)-1-oxo-1,2-dihydroisoquinolin-6-yl]-N-cyclopropyl-5-fluoro-4-methylbenzamide] reads 0.126 nM; that for `Cc1c(F)cc(C(=O)NC2CC2)cc1-c1ccc2c(=O)n(CC(C)(C)CO)cc(CN3CCC(C)(N)CC3)c2c1` [Example 31, 3-{4-[(4-Amino-4-methylpiperidin-1-yl)methyl]-2-(3-hydroxy-2,2-dimethylpropyl)-1-oxo-1,2-dihydroisoquinolin-6-yl}-N-cyclopropyl-5-fluoro-4-methylbenzamide], 0.794 nM; that for `Cc1c(F)cc(C(=O)NC2CC2)cc1-c1ccc2c(=O)n(CC(C)(C)CO)cc(CN3CCN(CCCO)CC3)c2c1` [Example 32, N-Cyclopropyl-3-fluoro-5-[2-(3-hydroxy-2,2-dimethylpropyl)-4-{[4-(3-hydroxypropyl)piperazin-1-yl]methyl}-1-oxo-1,2-dihydroisoquinolin-6-yl]-4-methylbenzamide], 0.794 nM.

With `Cc1c(F)cc(C(=O)NC2CC2)cc1-c1ccc2c(=O)n(CC3(CO)CC3)cc(CN3CCNC[C@H]3C)c2c1` [Example 33, N-Cyclopropyl-3-fluoro-5-(2-{[1-(hydroxymethyl)cyclopropyl]methyl}-4-{[(2R)-2-methylpiperazin-1-yl]methyl}-1-oxo-1,2-dihydroisoquinolin-6-yl)-4-methylbenzamide], the IC50 was 0.158 nM. Take `Cc1c(F)cc(C(=O)NC2CC2)cc1-c1ccc2c(=O)n(CC3(CO)CC3)cc(CN3CCN[C@@H](C)C3)c2c1` [Example 34, N-Cyclopropyl-3-fluoro-5-(2-{[1-(hydroxymethyl)cyclopropyl]methyl}-4-{[(3S)-3-methylpiperazin-1-yl]methyl}-1-oxo-1,2-dihydroisoquinolin-6-yl)-4-methylbenzamide]: the IC50 is 1 nM. `Cc1c(F)cc(C(=O)NC2CC2)cc1-c1ccc2c(=O)n(CC(CO)CO)cc(CN3CCN[C@@H](C)C3)c2c1` [Example 35, N-Cyclopropyl-3-fluoro-5-(2-[3-hydroxy-2-(hydroxymethyl)propyl]-4-{[(3S)-3-methylpiperazin-1-yl]methyl}-1-oxo-1,2-dihydroisoquinolin-6-yl)-4-methylbenzamide]: the IC50 is 5.01 nM. Still for that read-out and setting: for `Cc1c(F)cc(C(=O)NC2CC2)cc1-c1ccc2c(=O)n(CC(C)(CO)CO)cc(CN3CCN[C@@H](C)C3)c2c1` [Example 36, N-Cyclopropyl-3-fluoro-5-(2-[3-hydroxy-2-(hydroxymethyl)-2-methylpropyl]-4-{[(3S)-3-methylpiperazin-1-yl]methyl}-1-oxo-1,2-dihydroisoquinolin-6-yl)-4-methylbenzamide] the value was 3.16 nM; for `Cc1c(F)cc(C(=O)NC2CC2)cc1-c1ccc2c(=O)n(CC(C)(C)CO)cc(C(C)N3CCC(C)(N)CC3)c2c1` (stereo not drawn) [Example 41, 3-{4-[1-(4-Amino-4-methylpiperidin-1-yl)ethyl]-2-(3-hydroxy-2,2-dimethylpropyl)-1-oxo-1,2-dihydroisoquinolin-6-yl}-N-cyclopropyl-5-fluoro-4-methylbenzamide], 0.631 nM. On to `Cc1c(F)cc(C(=O)NC2CC2)cc1-c1ccc2c(=O)n(CC(C)(C)CO)cc(C(C)N3CCC[C@@H](N)C3)c2c1` (stereo partly drawn) [Example 42, 3-[4-{1-[(3R)-3-Aminopiperidin-1-yl]ethyl}-2-(3-hydroxy-2,2-dimethylpropyl)-1-oxo-1,2-dihydroisoquinolin-6-yl]-N-cyclopropyl-5-fluoro-4-methylbenzamide], for which the IC50 is 0.794 nM. For the compound `Cc1c(F)cc(C(=O)NC2CC2)cc1-c1ccc2c(=O)n(CC(C)(C)CO)cc(C(C)N3CCCNCC3)c2c1` (stereo not drawn) [Example 43, N-Cyclopropyl-3-{4-[1-(1,4-diazepan-1-yl)ethyl]-2-(3-hydroxy-2,2-dimethylpropyl)-1-oxo-1,2-dihydroisoquinolin-6-yl}-5-fluoro-4-methylbenzamide], the IC50 is 0.501 nM.
